Assay results from ChEMBL document CHEMBL3758147, “1,9-seco-Bicyclic Polyprenylated Acylphloroglucinols from Hypericum uralum” (J Nat Prod, 2015).

The compounds below were run against Acetylcholinesterase (Homo sapiens, UniProt P22303) (assay: Inhibition of human erythrocyte AChE using acetylthiocholine as substrate assessed as substrate hydrolysis preincubated for 20 mins followed by substrate addition measured after 30 mins by Ellman's assay). Conditions: not given; call rule not given here.
Chain of Acetylcholinesterase (P22303 whole entry): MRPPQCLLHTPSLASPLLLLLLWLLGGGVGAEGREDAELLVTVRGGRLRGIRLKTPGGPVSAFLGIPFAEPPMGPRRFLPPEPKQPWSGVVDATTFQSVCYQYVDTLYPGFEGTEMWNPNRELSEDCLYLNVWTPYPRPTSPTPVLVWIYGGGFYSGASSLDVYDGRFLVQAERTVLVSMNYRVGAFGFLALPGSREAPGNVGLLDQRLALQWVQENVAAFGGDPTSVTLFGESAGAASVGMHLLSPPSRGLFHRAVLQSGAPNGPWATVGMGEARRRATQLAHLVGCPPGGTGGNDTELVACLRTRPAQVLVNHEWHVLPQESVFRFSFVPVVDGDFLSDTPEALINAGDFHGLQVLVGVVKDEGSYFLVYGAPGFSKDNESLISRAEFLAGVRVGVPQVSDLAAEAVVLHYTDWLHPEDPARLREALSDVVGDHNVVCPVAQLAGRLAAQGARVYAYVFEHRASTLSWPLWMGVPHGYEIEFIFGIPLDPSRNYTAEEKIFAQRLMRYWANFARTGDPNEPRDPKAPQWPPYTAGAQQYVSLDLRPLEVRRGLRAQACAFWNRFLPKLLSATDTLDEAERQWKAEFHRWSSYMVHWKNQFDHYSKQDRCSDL

SMILES | IC50
CC(C)=CC[C@H]1C[C@@]2(CC=C(C)C)C(=O)O[C@](CC=C(C)C)(C2=O)C(=O)[C@]23C(=O)c4ccccc4C(C)(C)[C@H]2CC[C@]13C | Not Active
CCC(C)C(=O)[C@@H]1C(=O)[C@]2(CC=C(C)C)OC(=O)[C@](C/C=C(\C)CCC=C(C)C)(C[C@@H](CC=C(C)C)C1(C)C)C2=O (some centres not stated) | Not Active
CCC(C)C(=O)[C@@H]1C(=O)[C@]2(CC=C(C)C)OC(=O)[C@](CC=C(C)C)(C[C@H](CC=C(C)C)[C@@]1(C)C/C=C/C(C)(C)OO)C2=O (some centres not stated) | Not Active
CC(C)=CCC[C@]1(C)[C@@H](CC=C(C)C)C[C@H](CC=C(C)C)C(=O)[C@](O)(CC=C(C)C)C(=O)[C@H]1C(=O)C(C)C | Not Active
CC(C)=CC[C@H]1C[C@@]2(CC=C(C)C)C(=O)O[C@@](CC=C(C)C)(C(=O)[C@@H](C(=O)C(C)C)[C@]1(C)C/C=C/C(C)(C)OO)C2=O | Not Active
CC(C)=CCC[C@]1(C)[C@@H](CC=C(C)C)C[C@@]2(CC=C(C)C)C(=O)O[C@@](CC=C(C)C)(C(=O)[C@H]1C(=O)C(C)C)C2=O | Not Active
CC(C)=CC[C@H]1C[C@@]23C[C@H]4C(C)(C)c5ccccc5C(=O)[C@]45C(=O)C(CC=C(C)C)(C[C@@]1(C/C=C/C(C)(C)O)C25O)C3=O | Not Active
CC(C)=CCC1=C2OC(C)(C)[C@H](O)[C@H]3/C=C(/C)[C@@H](CC=C(C)C)C[C@](CC=C(C)C)(C1=O)C(=O)[C@]23C(=O)c1ccccc1 | Not Active
CC(C)=CC[C@H]1C[C@@]2(CC=C(C)C)C(=O)C3(CC=C(C)C)CC14C[C@@H](C=C(C)C)C(C(=O)c1ccccc1)(C3=O)C42O | Not Active
CC(C)=CCC/C(C)=C/C[C@]12C[C@@H](CC=C(C)C)C(C)(C)[C@H](C(=O)C(C)C)C(=O)[C@](CC=C(C)C)(OC1=O)C2=O | Not Active

Same assay, conditions: read-out: IC50

SMILES | IC50 [µM]
CCC(C)C(=O)[C@@H]1C(=O)[C@]2(CC=C(C)C)OC(=O)[C@](CC=C(C)C)(C[C@H](CC=C(C)C)[C@@]1(C)C/C=C/C(C)(C)O)C2=O (some centres not stated) | 7.1
CC(C)=CC[C@H]1C[C@@]2(CC=C(C)C)C(=O)O[C@@](CC=C(C)C)(C(=O)[C@@H](C(=O)C(C)C)[C@]1(C)C/C=C/C(C)(C)O)C2=O | 9.6
